Test results: US20080153824A1, “Method for Controlling Fungal Diseases in Leguminous Plants” (BASF Aktiengesellschaft, priority 2004, published 2008)

System: soybean rust
Test: Seed dressing trial, activity against soybean rust
Format: in vivo, soybean rust on soybean plants (cultivar BRS 133)
Conditions: soybean seeds cultivar BRS 133 treated with 1000 g orysastrobin/100 kg of seed (SC, 250 g/l, liquid dressing); inoculated 3 weeks after sowing; assessed 11 days after inoculation; untreated-seed plants 79% infected
Procedure: Seed dressing trial, activity against soybean rust
Soybean seeds of the cultivar BRS 133 were treated with 1000 g of orysastrobin/100 kg of seed, formulated as SC with 250 g of active compound per liter, as liquid dressing, then sown into pots and cultivated in a greenhouse at about 22° C. 3 weeks after sowing, the plants were inoculated with soybean rust, incubated at 100% relative atmospheric humidity for 24 hours and then again cultivated in the greenhouse. At the time of inoculation, the first pair of leaves and one subsequent leaf had developed. The infection of the leaves was assessed 11 days after the inoculation.

## CNC(=O)/C(=N/OC)c1ccccc1CO/N=C(C)/C(=N/OC)C(C)=NOC (stereo in doubt) [orysastrobin, (2E)-2-(methoxyimino)-2-{2-[(3E,5E,6E)-5-(methoxyimino)-4,6-dimethyl-2,8-dioxa-3,7-diazanona-3,6-dien-1-yl]phenyl}-N-methylacetamide]
  total infection of the leaves: less than 1%
